Experimental data published in US6489337B1, “Method for treating histamine H3 receptor-mediated disorders with 2- or 3-aryl substituted imidazo[1,2-a] pyridines” (Ortho-McNeil Pharmaceutical, Inc., priority 2000, dated 2002).
pKi: −log10 of the molar value. Structures can show the parent of a compound that is named as a salt.

Biological target: T1, human histamine H3 receptor (Homo sapiens, UniProt Q9Y5N1)
T1 construct: expressed in transfected cells; membranes prepared from cell pellets
Assay: [3H]-N-methylhistamine binding
Details: membranes of histamine H3 receptor-expressing SK-N-MC cells; 0.8 nM [3H]-N-methylhistamine; 45 minutes at 25° C.; KI=(IC50)/(1+([L]/(KD)), KD 800 pM
Procedure: In the present invention receptor binding was determined using the human histamine H3 receptor (See Lovenberg et al Mol. Pharmacol. 1999, 1107). Screening using the human receptor is particularly important for the identification of new therapies for the treatment of human disease. Conventional binding assays for example are determined using rat synaptosomes (Garbarg et al J. Pharmacol. Exp. Ther. 1992, 263, 304), rat cortical membranes (West et al Mol. Pharmacol. 1990, 610), and guinea pig brain (Korte et al Biochem. Biophys. Res. Commun. 1990, 978). Only limited studies have been performed previously using human tissue but these allude to significant differences in the pharmacology of rodent and primate receptors (West et al Eur. J. Pharmacol. 1999, 233).
A 10 cm tissue culture dish with a confluent monolayer of SK-N-MC cells was split two days prior to transfection. Using sterile technique the media was removed and the cells were detached from the dish by the addition of trypsin. One fifth of the cells were then placed onto a new 10 cm dish. Cells were grown in a 37° C. incubator with 5% CO2 in Minimal Essential Media Eagle with 10% Fetal Bovine Serum. After two days cells were approximately 80% confluent. These were removed from the dish with trypsin and pelleted in a clinical centrifuge. The pellet was then re-suspended in 400 μL complete media and transferred to an electroporation cuvette with a 0.4 cm gap between the electrodes (Bio-Rad #165-2088). One microgram supercoiled H3 receptor cDNA was added to the cells and mixed. The voltage for the electroporation was set at 0.25 kV, the capacitance is set at 960 μF.
After electroporation the cells were diluted into 10 mL complete media and plated onto four 10 cm dishes. Due to the variability in the efficiency of electroporation, four different concentrations of cells were plated. The ratios used were: 1:20, 1:10, and 1:5, with the remainder of the cells being added to the fourth dish. The cells were allowed to recover for 24 hours before adding the selection media (complete media with 600 μg/ml G418). After 10 days dishes were analyzed for surviving colonies of cells. Dishes with well-isolated colonies were used. Cells from individual colonies were isolated and tested. SK-N-MC cells were used because they give efficient coupling for inhibition of adenylate cyclase. The clones that gave the most robust inhibition of adenylate cyclase in response to histamine were used for further study.
1(B) [^3H]-N-methylhistamine Binding
Cell pellets from histamine H3 receptor-expressing SK-N-MC cells were homogenized in 20 mM TrisHCl/0.5 mM EDTA. Supernatants from a 800 g spin were collected, recentrifuged at 30,000 g for 30 minutes. Pellets were rehomogenized in 50 mM Tris/5 mM EDTA (pH 7.4). Membranes were incubated with 0.8 nM [^3H]-N-methylhistamine plus/minus test compounds for 45 minutes at 25° C. and harvested by rapid filtration over GF/C glass fiber filters (pretreated with 0.3% polyethylenimine) followed by four washes with ice cold buffer. Filters were dried, added to 4 mL scintillation cocktail and then counted on a liquid scintillation counter. Non-specific binding was defined with 10 μM histamine according to Chen and Prusoff, Biochem. Pharmacol. 1973, 22:3099. KI values were calculated based on a KD of 800 pM and a ligand concentration ([L]) of 800 pM according to the formula: KI=(IC50)/(1+([L]/(KD)). KI values are provided in the examples above.

T1 sequence (Q9Y5N1 whole entry): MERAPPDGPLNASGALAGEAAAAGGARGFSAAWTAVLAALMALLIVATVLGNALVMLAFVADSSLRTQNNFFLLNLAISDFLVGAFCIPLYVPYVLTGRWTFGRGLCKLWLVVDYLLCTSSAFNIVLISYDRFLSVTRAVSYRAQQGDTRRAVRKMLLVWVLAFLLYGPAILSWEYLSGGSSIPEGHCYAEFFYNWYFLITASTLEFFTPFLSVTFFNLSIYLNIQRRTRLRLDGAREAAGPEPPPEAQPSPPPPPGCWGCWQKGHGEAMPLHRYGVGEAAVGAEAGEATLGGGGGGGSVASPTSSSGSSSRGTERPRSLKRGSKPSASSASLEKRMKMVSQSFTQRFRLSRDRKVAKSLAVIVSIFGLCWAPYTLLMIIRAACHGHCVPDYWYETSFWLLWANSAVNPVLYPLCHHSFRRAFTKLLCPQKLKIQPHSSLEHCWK

Row | Compound | pKi
1 | CCCCN(CCCC)CCCOc1ccc(C(=O)c2cn3ccc(C)cc3n2)cc1 [Example 3, [4-(3-dibutylamino-propoxy)-phenyl]-(7-methyl-imidazo[1,2-a]pyridin-2-yl)-methanone] | 7.15
2 | CCCCN(CCCC)CCCOc1ccc(-c2nc3c(C)cccn3c2C)cc1 [Example 4, 2-(4-Dibutylaminopropoxyphenyl)-3,8-dimethylimidazo[1,2-a]pyridine] | 6.49
3 | CCCCN(CCCC)CCCOc1ccc(C(=O)c2cn3cccc(C)c3n2)cc1 [Example 5, 2-(4-Dibutylaminopropoxybenzoyl)-8-methylimidazo[1,2-a]pyridine] | 6.30
4 | CN(C)CCCOc1ccc(-c2cn3ccccc3n2)cc1 [Example 9, 2-(4-Dimethylaminopropoxyphenyl)imidazo[1,2-a]pyridine] | 6.92
5 | Cc1cccn2cc(-c3ccc(OCCN(C(C)C)C(C)C)cc3)nc12 [Example 11, 2-(4-Diisopropylaminoethoxyphenyl)-8-methylimidazo[1,2-a]pyridine] | 7.26

Results, then the compound that gave them:

Row | pKi | Compound
6 | 6.30 | CCCCN(CCCC)CCCOc1ccc(-c2cn3cccc(C)c3n2)cc1 [Example 2, 2-[4-[3-(Dibutylamino)propoxy]phenyl)-8-methylimidazo[1,2-a]pyridine]
7 | 7.36 | CCCN(CCC)CCCOc1ccc(-c2cn3cccc(C)c3n2)cc1 [Example 7, 2-(4-Dipropylaminopropoxyphenyl)-8-methylimidazo[1,2-a]pyridine]
8 | 7.85 | Cc1cccn2cc(-c3ccc(OCCCN(C)C)cc3)nc12 [Example 8, 2-(4-Dimethylaminopropoxyphenyl)-8-methylimidazo[1,2-a]pyridine]
9 | 7.82 | CCN(CC)CCOc1ccc(-c2cn3cccc(C)c3n2)cc1 [Example 10, 2-(4-Diethylaminoethoxyphenyl)-8-methylimidazo[1,2-a]pyridine]
10 | 6.30 | CCCCCN(CCCCC)CCCOc1ccc(-c2cn3cccc(C)c3n2)cc1 [Example 13, 2-(4-Dipentylaminopropoxyphenyl)-8-methylimidazo[1,2-a]pyridine]
11 | 7.85 | CCCN(CCC)CCCOc1ccc(-c2cn3cccc(C)c3n2)cc1C [Example 14, 2-(4-Dipropylaminopropoxy-(3-methyl)-phenyl)-8-methylimidazo[1,2-a]pyridine]

Tested on: not given
Assay: not given
Details: not given

Row | melting point | Compound
12 | 179 to 183 °C | CCCCN(CCCC)CCCOc1ccc(-c2cn3ccccc3n2)cc1 (as salt: HCl) [Example 1, 2-(4-Dibutylaminopropoxyphenyl)imidazo[1,2-a]pyridine]
13 | 214 to 217 °C | CCCCN(CCCC)CCCOc1ccc(-c2cn3cccc(C)c3n2)cc1 (as salt: HCl) [Example 2, 2-[4-[3-(Dibutylamino)propoxy]phenyl)-8-methylimidazo[1,2-a]pyridine]
14 | 202 to 204 °C | CCCCN(CCCC)CCCOc1ccc(-c2nc3c(C)cccn3c2C)cc1 (as salt: HCl) [Example 4, 2-(4-Dibutylaminopropoxyphenyl)-3,8-dimethylimidazo[1,2-a]pyridine]
15 | 159 to 161 °C | CCCCN(CCCC)CCCOc1ccc(C(=O)c2cn3cccc(C)c3n2)cc1 (as salt: HCl) [Example 5, 2-(4-Dibutylaminopropoxybenzoyl)-8-methylimidazo[1,2-a]pyridine]
